System: spermatozoa
Test: Post-thaw sperm motility after freezing in supplemented CryoProtec medium, analyzed by CASA
Assay type: cell-based
Conditions: for Percentage of motile spermatozoa: thawed after 24 h in liquid nitrogen, mean±SD, 5 experiments; for velocity parameters, including linear velocity (VSL) and lateral head displacement (AHL): post-thaw, Cryoprotec medium supplemented with compound
Protocol: Aliquots of 50 μL of solutions of different 4-thioderivatives of flavan-3-ol of formula (I) hereof dissolved in PureSperm Wash medium (Nidacon International, Sweden), were added to 0.95 mL of the spermatozoa suspension (50 millions/mL) in CryoProtec freezing medium (Nidacon International, Sweden) in 1.8 mL Nunc vials in order to obtain final concentrations of 1, 10, 25, 50 and 100 μg/mL. Aliquots of 50 μL of solutions of (−)-epicatechin, a natural flavan-3-ol, were treated in the same way. As a control, 50 μL of PureSperm Wash medium (Nidacon International) were added instead of the solutions of the compounds of the invention (0 μg/mL). The percentage of motile cells in the different cellular suspensions was analyzed by CASA (Computer-Assisted Sperm Analysis) using an IVOS-IDENT (Hamilton-Thorn, Beverly, Mass.).
The cellular suspensions were processed for freezing using a standard freezing gradient as follows: cooling from room temperature to 4° C. in 30 min, from 4° C. to 0° C. in 3 min and immediately transferred to liquid nitrogen tanks. After 24 h in liquid nitrogen, the samples were thawed in a water bath at 37° C.
The percentage of motile spermatozoa in the different samples obtained above was analyzed by CASA. Since vials corresponding to the different compounds were in different boxes inside the nitrogen tanks, a control was used for each group of compounds.
Values are the mean±SD from a total of 5 experiments per concentration.

[1] = 1 μg/mL (approximate) compound in freezing medium
[2] = 10 μg/mL (approximate) compound in freezing medium
[3] = 25 μg/mL (approximate) compound in freezing medium
[4] = 50 μg/mL (approximate) compound in freezing medium
[5] = 100 μg/mL (approximate) compound in freezing medium

| Compound | Percentage of motile spermatozoa [1] | Percentage of motile spermatozoa [2] | Percentage of motile spermatozoa [3] | Percentage of motile spermatozoa [4] | Percentage of motile spermatozoa [5] | post-thaw motility recovery versus control ((−)-epicatechin versus control, all concentrations) | protection, evaluated in terms of sperm motility (concentrations ranging from 1 to 100 μg/mL) | storage stabilizing cryoprotective effect (summary statement) | velocity parameters, including linear velocity (VSL) and lateral head displacement (AHL) |
| --- | --- | --- | --- | --- | --- | --- | --- | --- | --- |
| Oc1cc(O)c2c(c1)O[C@H](c1ccc(O)c(O)c1)[C@H](O)C2 [(−)-epicatechin, reference compound] | 46.8 ± 1.9% | 47.0 ± 2.2% | 47.6 ± 3.2% | 47.4 ± 2.6% | 46.8 ± 1.3% | No significant differences | no significant protection | no significant storage stabilizing cryoprotective effect |  |
| N[C@@H](CS[C@H]1c2c(O)cc(O)cc2O[C@H](c2ccc(O)c(O)c2)[C@@H]1O)C(=O)O [4β-(S-cysteinyl)epicatechin] | 47.6 ± 3.0% | 52.0 ± 2.3% | 61.8 ± 2.6 % | 69.8 ± 3.2 % | 70.2 ± 2.8 % |  |  |  | significantly higher |
| COC(=O)[C@H](CS[C@H]1c2c(O)cc(O)cc2O[C@H](c2ccc(O)c(O)c2)[C@@H]1O)NC(C)=O [Example 4, 4β-[S—(N-acetyl-O-methyl-cysteinyl)]epicatechin] | 47.6 ± 3.7% | 49.8 ± 3.0% | 54.8 ± 5.2 % | 59.4 ± 3.3 % | 59.2 ± 2.8 % |  |  |  | significantly higher |
